Source: patent US20050282743A1, “Molecular interactions in cells” (Arbor Vita Corporation, priority 2001, published 2005)
Ends that are not written are not given here. Peptide text beside a SMILES is read from it. * marks the point of attachment. Biotin = O=C1N[C@H]2[C@H](CS[C@H]2CCCCC(=O)*)N1

How the values were obtained:
Assay in all cases: G' assay (10 uM PL peptide), results of TABLE 7 and TABLE 12
Type in all cases: binding
[1] = biological target: T1, PDZ protein (GST-PDZ fusion) (Homo sapiens, UniProt Q5TCQ9)
T1 construct: made in house; host or cells: E. coli (DH5alpha, BL21 or JM109)
T1 sequence (Q5TCQ9 1-1481): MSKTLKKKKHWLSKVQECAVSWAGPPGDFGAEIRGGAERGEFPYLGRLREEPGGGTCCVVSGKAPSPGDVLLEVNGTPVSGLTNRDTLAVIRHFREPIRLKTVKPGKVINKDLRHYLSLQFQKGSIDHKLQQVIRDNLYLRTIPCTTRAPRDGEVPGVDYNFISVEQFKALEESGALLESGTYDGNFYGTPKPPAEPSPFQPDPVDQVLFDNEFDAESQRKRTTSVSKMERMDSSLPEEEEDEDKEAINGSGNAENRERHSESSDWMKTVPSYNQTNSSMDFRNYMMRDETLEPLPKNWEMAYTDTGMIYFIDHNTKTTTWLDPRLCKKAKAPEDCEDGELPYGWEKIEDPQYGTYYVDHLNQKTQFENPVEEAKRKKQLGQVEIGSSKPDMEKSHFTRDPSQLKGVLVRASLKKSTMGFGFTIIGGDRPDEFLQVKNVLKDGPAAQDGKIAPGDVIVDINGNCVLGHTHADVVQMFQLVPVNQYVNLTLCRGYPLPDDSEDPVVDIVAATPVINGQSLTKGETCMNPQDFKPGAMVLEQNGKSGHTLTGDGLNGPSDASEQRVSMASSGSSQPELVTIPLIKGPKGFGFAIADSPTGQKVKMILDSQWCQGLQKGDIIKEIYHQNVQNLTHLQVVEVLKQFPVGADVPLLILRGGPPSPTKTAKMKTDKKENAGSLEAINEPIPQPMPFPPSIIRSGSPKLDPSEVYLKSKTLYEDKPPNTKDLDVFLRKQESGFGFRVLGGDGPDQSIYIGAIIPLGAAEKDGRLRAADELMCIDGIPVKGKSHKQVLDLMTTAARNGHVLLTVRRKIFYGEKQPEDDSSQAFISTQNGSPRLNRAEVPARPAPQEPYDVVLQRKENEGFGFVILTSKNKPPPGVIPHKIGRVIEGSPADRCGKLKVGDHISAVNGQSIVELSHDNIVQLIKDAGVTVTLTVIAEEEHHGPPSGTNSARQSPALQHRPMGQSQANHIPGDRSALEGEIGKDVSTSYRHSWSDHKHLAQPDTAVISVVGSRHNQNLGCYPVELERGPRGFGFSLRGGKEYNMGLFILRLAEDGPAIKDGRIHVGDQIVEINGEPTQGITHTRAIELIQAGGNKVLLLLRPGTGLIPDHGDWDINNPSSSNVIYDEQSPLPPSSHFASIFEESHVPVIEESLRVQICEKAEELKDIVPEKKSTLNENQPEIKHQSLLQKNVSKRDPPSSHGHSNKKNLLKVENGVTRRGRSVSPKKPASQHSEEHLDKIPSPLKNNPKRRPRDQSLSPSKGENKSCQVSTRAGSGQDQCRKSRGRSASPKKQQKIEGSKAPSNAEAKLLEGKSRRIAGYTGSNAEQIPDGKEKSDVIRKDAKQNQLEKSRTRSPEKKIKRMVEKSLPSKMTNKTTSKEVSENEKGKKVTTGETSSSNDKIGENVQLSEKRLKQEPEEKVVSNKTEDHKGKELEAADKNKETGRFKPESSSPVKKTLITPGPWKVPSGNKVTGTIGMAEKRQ
Method in brief: (§1)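 Same steps as the G-zero format, apart from a peptide concentration of 10 uM in place of 20 uM in step 2. Amino-terminally biotinylated PL peptides bind GST-PDZ fusions, and retained peptide is quantified by 450 nm absorbance.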

[2] = biological target: T2, PDZ protein (GST-PDZ fusion) (Homo sapiens, UniProt Q6P0Q8)
T2 construct: made in house; host or cells: E. coli (DH5alpha, BL21 or JM109)
Method in brief: as §1

[3] = system: PDZ protein (GST-PDZ fusion)
Method in brief: as §1

[4] = PDZ KIAA807, PDZ Domain not given

T2 sequence (Q6P0Q8 whole entry, the tested form may be a part): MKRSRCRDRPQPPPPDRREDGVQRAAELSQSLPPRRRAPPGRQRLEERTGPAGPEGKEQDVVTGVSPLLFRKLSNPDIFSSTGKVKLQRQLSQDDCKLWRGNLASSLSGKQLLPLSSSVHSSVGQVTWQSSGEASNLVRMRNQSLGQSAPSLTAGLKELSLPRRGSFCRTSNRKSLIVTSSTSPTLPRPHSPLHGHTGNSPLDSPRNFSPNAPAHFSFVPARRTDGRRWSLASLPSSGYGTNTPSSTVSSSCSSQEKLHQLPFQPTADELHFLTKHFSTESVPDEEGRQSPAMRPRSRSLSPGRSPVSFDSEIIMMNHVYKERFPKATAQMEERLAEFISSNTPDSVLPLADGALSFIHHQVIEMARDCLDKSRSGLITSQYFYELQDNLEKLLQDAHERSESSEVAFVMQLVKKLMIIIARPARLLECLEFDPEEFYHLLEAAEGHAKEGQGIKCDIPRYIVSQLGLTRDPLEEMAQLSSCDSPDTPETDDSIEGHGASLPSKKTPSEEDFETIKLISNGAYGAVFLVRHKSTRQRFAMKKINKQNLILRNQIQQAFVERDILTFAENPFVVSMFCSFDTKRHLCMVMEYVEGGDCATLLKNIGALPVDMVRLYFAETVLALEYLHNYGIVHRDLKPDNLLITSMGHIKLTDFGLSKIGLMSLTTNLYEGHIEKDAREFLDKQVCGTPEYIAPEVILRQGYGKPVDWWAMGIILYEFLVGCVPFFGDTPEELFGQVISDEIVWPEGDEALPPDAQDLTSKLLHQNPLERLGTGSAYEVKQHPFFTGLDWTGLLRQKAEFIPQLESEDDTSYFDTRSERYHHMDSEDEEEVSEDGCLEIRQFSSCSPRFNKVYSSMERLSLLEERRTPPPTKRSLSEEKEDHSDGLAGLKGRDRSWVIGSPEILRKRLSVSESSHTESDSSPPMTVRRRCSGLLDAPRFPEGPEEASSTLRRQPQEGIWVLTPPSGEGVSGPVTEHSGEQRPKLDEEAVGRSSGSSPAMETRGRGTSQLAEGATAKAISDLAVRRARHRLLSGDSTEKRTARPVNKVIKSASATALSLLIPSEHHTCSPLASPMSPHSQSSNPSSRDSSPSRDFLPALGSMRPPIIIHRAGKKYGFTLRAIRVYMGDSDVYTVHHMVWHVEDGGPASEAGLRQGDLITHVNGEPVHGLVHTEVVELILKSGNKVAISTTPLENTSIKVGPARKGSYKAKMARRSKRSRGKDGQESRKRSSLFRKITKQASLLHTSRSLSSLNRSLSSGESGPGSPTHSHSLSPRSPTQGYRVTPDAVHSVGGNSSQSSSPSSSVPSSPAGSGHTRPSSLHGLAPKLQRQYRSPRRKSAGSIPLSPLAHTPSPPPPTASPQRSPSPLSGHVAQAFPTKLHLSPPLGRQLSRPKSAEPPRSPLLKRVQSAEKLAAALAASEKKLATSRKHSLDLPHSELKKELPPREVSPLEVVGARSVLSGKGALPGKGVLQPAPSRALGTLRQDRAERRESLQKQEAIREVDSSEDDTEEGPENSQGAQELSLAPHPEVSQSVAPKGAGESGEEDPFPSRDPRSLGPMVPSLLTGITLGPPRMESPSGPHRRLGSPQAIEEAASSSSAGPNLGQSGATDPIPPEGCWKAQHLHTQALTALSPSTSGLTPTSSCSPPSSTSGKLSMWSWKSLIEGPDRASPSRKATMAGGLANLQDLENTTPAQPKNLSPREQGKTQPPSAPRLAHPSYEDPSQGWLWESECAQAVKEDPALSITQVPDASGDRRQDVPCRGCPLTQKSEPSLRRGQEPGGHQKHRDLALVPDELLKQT

Row | Compound | Classification ([1]; PDZ KIAA1634, PDZ Domain 1) | Classification ([2]; PDZ KIAA0807(S), PDZ Domain 1) | Classification ([1]; PDZ KIAA1634, PDZ Domain 5) | Classification [2, 4] | Classification ([3]; PDZ BAI-1, PDZ Domain 2) | Classification ([3]; PDZ BAI-1, PDZ Domain 6) | Classification ([3]; PDZ SHANK, PDZ Domain 1) | further results
1 | CC[C@H](C)[C@H](NC(=O)CNC(=O)[C@H](CO)NC(=O)[C@H](Cc1ccccc1)NC(=O)[C@@H](NC(=O)[C@H](CS)NC(=O)CNC(=O)CNC(=O)[C@H](C)NC(=O)[C@@H]1CCCN1C(=O)[C@@H](NC(=O)[C@@H]1CCCN1C(=O)CCCC[C@@H]1SC[C@@H]2NC(=O)N[C@@H]21)[C@@H](C)CC)[C@@H](C)O)C(=O)N[C@@H](Cc1ccccc1)C(=O)N1CCC[C@H]1C(=O)N[C@H](C(=O)N[C@@H](CC(C)C)C(=O)N[C@H](C(=O)N[C@@H](CO)C(=O)N1CCC[C@H]1C(=O)N[C@@H](CC(C)C)C(=O)O)[C@@H](C)O)[C@@H](C)O [KIA 1481] (Biotin-PIPAGGCTFSGIFPTLTSPL-OH; C-terminus assumed) | 2 (A450 nm 1-2) | 5 (A450 nm of 4 more than 2× repeated) | 1 (A450 nm 0-1) | 5 (A450 nm of 4 more than 2× repeated) | 2 (A450 nm 1-2) | 2 (A450 nm 1-2) | 5 (A450 nm of 4 more than 2× repeated) | Classification ([1]; PDZ KIAA1634, PDZ Domain 2): 1 (A450 nm 0-1); Classification ([3]; PDZ BAI-1, PDZ Domain 4): 1 (A450 nm 0-1); Classification ([3]; PDZ BAI-1, PDZ Domain 5): 3 (A450 nm 2-3); Classification ([3]; PDZ FLJ00011 (also printed FLJ 00011), PDZ Domain 1): 2 (A450 nm 1-2); Classification ([3]; PDZ Novel PDZ, PDZ Domain 1): 1 (A450 nm 0-1); Classification ([3]; PDZ Novel PDZ, PDZ Domain 2): 1 (A450 nm 0-1)
2 | CC[C@H](C)[C@H](NC(=O)[C@H](CC(=O)O)NC(=O)[C@H](CCC(=O)O)NC(=O)[C@H](CCCNC(=N)N)NC(=O)[C@@H](NC(=O)CCCC[C@@H]1SC[C@@H]2NC(=O)N[C@@H]21)[C@@H](C)O)C(=O)N[C@@H](Cc1ccc(O)cc1)C(=O)N[C@H](C(=O)N[C@@H](CC(N)=O)C(=O)N[C@@H](Cc1ccc(O)cc1)C(=O)N1CCC[C@H]1C(=O)N[C@H](C(=O)N[C@@H](Cc1ccccc1)C(=O)N[C@@H](CO)C(=O)N[C@@H](CCCNC(=N)N)C(=O)N[C@@H](CCCNC(=N)N)C(=O)N1CCC[C@H]1C(=O)N[C@@H](CCCCN)C(=O)N[C@H](C(=O)N[C@@H](CCCNC(=N)N)C(=O)N[C@H](C(=O)O)C(C)C)[C@@H](C)O)[C@@H](C)O)C(C)C [DNAM-1] (Biotin-TREDIYVNYPTFSRRPKTRV-OH; C-terminus assumed) | 5 (A450 nm of 4 more than 2× repeated) | 3 (A450 nm 2-3) | – | – | 5 (A450 nm of 4 more than 2× repeated) | – | – | Classification ([2]; PDZ KIAA807): 3 (A450 nm 2-3)
3 | CKR5_HUMAN (ERASSVYTRSTGEQEISVGL) | 1 (A450 nm 0-1) | – | – | – | – | – | – | –
4 | LNETTETQRTLLNGDLQTSI (Biotin-LNETTETQRTLLNGDLQTSI) [SSTR2 (somatostatin recepor 2)] | – | 2 (A450 nm 1-2) | – | 2 (A450 nm 1-2) | – | – | 1 (A450 nm 0-1) | –
5 | CC(C)C[C@H](NC(=O)[C@H](CCCNC(=N)N)NC(=O)CNC(=O)CNC(=O)[C@H](CCCNC(=N)N)NC(=O)[C@H](C)NC(=O)[C@@H]1CCCN1C(=O)[C@H](CCCNC(=N)N)NC(=O)CNC(=O)CNC(=O)[C@@H](NC(=O)[C@H](C)NC(=O)CCCC[C@@H]1SC[C@@H]2NC(=O)N[C@@H]21)C(C)C)C(=O)N[C@@H](CCC(N)=O)C(=O)NCC(=O)N[C@@H](CCCNC(=N)N)C(=O)N[C@@H](CCCNC(=N)N)C(=O)N[C@@H](CCC(N)=O)C(=O)N[C@H](C(=O)N[C@@H](CCC(N)=O)C(=O)N[C@H](C(=O)O)C(C)C)[C@@H](C)O [HPV E6 58 (modified)] (Biotin-AVGGRPARGGRLQGRRQTQV-OH; C-terminus assumed) | 5 (A450 nm of 4 more than 2× repeated) | 5 (A450 nm of 4 more than 2× repeated) | 1 (A450 nm 0-1) | – | 5 (A450 nm of 4 more than 2× repeated) | – | – | Classification ([1]; PDZ KIAA1634, PDZ Domain 2): 1 (A450 nm 0-1); Classification ([3]; PDZ BAI-1, PDZ Domain 3): 2 (A450 nm 1-2); Classification ([3]; PDZ BAI-1, PDZ Domain 4): 2 (A450 nm 1-2); Classification ([3]; PDZ BAI-1, PDZ Domain 5): 2 (A450 nm 1-2)
6 | PPATPSPRLALPAHHNATRL (Biotin-PPATPSPRLALPAHHNATRL) [Na+/Pi cotransporter 2] | – | 5 (A450 nm of 4 more than 2× repeated) | – | 5 (A450 nm of 4 more than 2× repeated) | – | – | 5 (A450 nm of 4 more than 2× repeated) | –
7 | CC[C@H](C)[C@H](NC(=O)[C@H](CO)NC(=O)[C@H](CCC(=O)O)NC(=O)[C@H](Cc1ccc(O)cc1)NC(=O)[C@H](CC(=O)O)NC(=O)[C@H](CC(N)=O)NC(=O)[C@H](CCC(=O)O)NC(=O)[C@H](CCCCN)NC(=O)CCCC[C@@H]1SC[C@@H]2NC(=O)N[C@@H]21)C(=O)N[C@@H](CO)C(=O)N[C@@H](CC(=O)O)C(=O)N[C@@H](CC(C)C)C(=O)N[C@@H](CCC(N)=O)C(=O)N[C@@H](CCC(N)=O)C(=O)NCC(=O)N[C@@H](CCCNC(=N)N)C(=O)N[C@@H](CC(=O)O)C(=O)N[C@H](C(=O)N[C@H](C(=O)N[C@@H](CCCNC(=N)N)C(=O)N[C@@H](CC(C)C)C(=O)O)[C@@H](C)O)[C@@H](C)CC [PAG] (Biotin-KENDYESISDLQQGRDITRL-OH; C-terminus assumed) | – | – | – | – | – | – | 4 (A450 nm 3-4) | Classification ([3]; PDZ FLJ 00011, PDZ Domain 1): 3 (A450 nm 2-3)
8 | ARHRVTSYTSSSVNVSSNL (Biotin-ARHRVTSYTSSSVNVSSNL) [IL-8RB] | 1 (A450 nm 0-1) | – | 1 (A450 nm 0-1) | – | 1 (A450 nm 0-1) | 1 (A450 nm 0-1) | – | Classification ([3]; PDZ Novel PDZ, PDZ Domain 2): 1 (A450 nm 0-1)

Further lines, with some results ahead:

Row | Classification ([1]; PDZ KIAA1634, PDZ Domain 1) | Classification ([2]; PDZ KIAA0807(S), PDZ Domain 1) | Classification ([1]; PDZ KIAA1634, PDZ Domain 5) | Classification [2, 4] | Compound | Classification ([3]; PDZ BAI-1, PDZ Domain 2) | Classification ([3]; PDZ BAI-1, PDZ Domain 6) | Classification ([3]; PDZ SHANK, PDZ Domain 1) | further results
9 | 4 (A450 nm 3-4) | 1 (A450 nm 0-1) | – | – | GGGGGSGGGGGSGIESVKI [GLUR2 (glutamate receptor 2-modified)] | – | – | – | –
10 | – | – | 1 (A450 nm 0-1) | – | QATSRNGHSARQHVVADTEL (Biotin-QATSRNGHSARQHVVADTEL) [CD34] | – | 1 (A450 nm 0-1) | 1 (A450 nm 0-1) | –
11 | – | 1 (A450 nm 0-1) | – | 1 (A450 nm 0-1) | KTMPAATYRLLTGQEQPVYL (Biotin-KTMPAATYRLLTGQEQPVYL) [MINT-3] | – | – | – | Classification ([3]; PDZ LIM Protein, PDZ Domain 1): 1 (A450 nm 0-1)
12 | 1 (A450 nm 0-1) | – | – | – | CC[C@H](C)[C@H](NC(=O)[C@H](CCC(=O)O)NC(=O)[C@H](CO)NC(=O)[C@H](CCC(=O)O)NC(=O)[C@H](CCCNC(=N)N)NC(=O)[C@H](CCCNC(=N)N)NC(=O)[C@H](CC(C)C)NC(=O)[C@@H]1CCCN1C(=O)[C@H](CCCNC(=N)N)NC(=O)[C@@H]1CCCN1C(=O)[C@H](CCC(=O)O)NC(=O)[C@H](CC(C)C)NC(=O)[C@@H]1CCCN1C(=O)[C@@H](NC(=O)[C@H](CO)NC(=O)[C@H](C)NC(=O)[C@H](CCC(N)=O)NC(=O)[C@H](CC(N)=O)NC(=O)[C@H](Cc1c[nH]cn1)NC(=O)[C@H](CC(C)C)NC(=O)CCCC[C@@H]1SC[C@@H]2NC(=O)N[C@@H]21)C(C)C)C(=O)O [Kir2.1 (inwardly rect. K+ channel)] (Biotin-LHNQASVPLEPRPLRRESEI-OH; C-terminus assumed) | – | – | – | –
13 | – | – | 1 (A450 nm 0-1) | – | LASKSAEEGKQIPDSLSTDL (Biotin-LASKSAEEGKQIPDSLSTDL) [Dock2] | – | 1 (A450 nm 0-1) | 1 (A450 nm 0-1) | Classification ([3]; PDZ HEMBA 1003117, PDZ Domain 1): 1 (A450 nm 0-1)
